Data taken from patent US9937183B2, “Antimicrobial compounds and methods of making and using the same” (priority 2013, dated 2018).
In brackets after ≈: the same amount, converted by molar mass. Like-named read-outs stand apart in the source and are kept apart here.

Legend:
Type in all cases: cell-based
[1] = test system: A. baumannii 1705936; experiment: MIC, microtiter-based liquid assay (CLSI); settings: Acinetobacter baumannii, MDR strain
[2] = test system: E. coli CAG12184 TolC; experiment: MIC, microtiter-based liquid assay (CLSI); settings: Escherichia coli, CAG12184TOLC
[3] = test system: E. coli 1705878; experiment: MIC, microtiter-based liquid assay (CLSI); settings: Escherichia coli, MDR strain
[4] = test system: B. mallei; experiment: microbe, parasite or virus in culture; settings: Burkholderia mallei; for MIC50: read-out: B. mallei MIC50; for MIC90: read-out: B. mallei MIC90; for MIC: read-out: B. mallei MIC Range
[5] = test system: K. pneumoniae 1705949; experiment: MIC, microtiter-based liquid assay (CLSI); settings: Klebsiella pneumoniae, MDR strain
[6] = test system: E. coli MG1655 parent; experiment: MIC, microtiter-based liquid assay (CLSI); settings: Escherichia coli
[7] = test system: S. pneumoniae 02J1175 Mef(A); experiment: MIC, microtiter-based liquid assay (CLSI); settings: Streptococcus pneumoniae
[8] = test system: K. pneumoniae 1705966; experiment: MIC, microtiter-based liquid assay (CLSI); settings: Klebsiella pneumoniae
[9] = test system: P. aeruginosa 1705886; experiment: MIC, microtiter-based liquid assay (CLSI); settings: Pseudomonas aeruginosa
[10] = test system: S. aureus 11540 MRSA; experiment: MIC, microtiter-based liquid assay (CLSI); settings: Staphylococcus aureus
[11] = test system: Y. pestis; experiment: microbe, parasite or virus in culture; settings: Yersinia pestis; for MIC50: read-out: Y. pestis MIC50; for MIC90: read-out: Y. pestis MIC90; for MIC: read-out: Y. pestis MIC Range
[12] = test system: E. faecium A6349 VanA + LNZ-R; experiment: MIC, microtiter-based liquid assay (CLSI); settings: Enterococcus faecium
[13] = test system: F. tularensis; experiment: microbe, parasite or virus in culture; settings: Francisella tularensis; for MIC50: read-out: F. tularensis MIC50; for MIC90: read-out: F. tularensis MIC90; for MIC: read-out: F. tularensis MIC Range
[14] = test system: E. coli ATCC25922; experiment: MIC, microtiter-based liquid assay (CLSI); settings: Escherichia coli
[15] = test system: A. baumannii 1705943; experiment: MIC, microtiter-based liquid assay (CLSI); settings: Acinetobacter baumannii
[16] = test system: P. aeruginosa 1705904; experiment: MIC, microtiter-based liquid assay (CLSI); settings: Pseudomonas aeruginosa, MDR strain
[17] = test system: B. pseudomallei; experiment: microbe, parasite or virus in culture; settings: Burkholderia pseudomallei; for MIC50: read-out: B. pseudomallei MIC50; for MIC90: read-out: B. pseudomallei MIC90; for MIC: read-out: B. pseudomallei MIC Range
[18] = test system: B. anthracis; experiment: microbe, parasite or virus in culture; settings: Bacillus anthracis; for MIC50: read-out: B. anthracis MIC50; for MIC90: read-out: B. anthracis MIC90; for MIC: read-out: B. anthracis MIC Range
[19] = test system: P. aeruginosa ATCC27853; experiment: MIC, microtiter-based liquid assay (CLSI); settings: Pseudomonas aeruginosa
[20] = ATCC25922, read-out: MIC E. coli ATCC25922 + 50% HS
[21] = ATCC25922, read-out: MIC E. coli ATCC25922

Molecule `C=CCC[C@H](NCCCNC(=N)N)c1ccc(-n2cc3cc(-c4cc(CCC[C@H](C)N)cc(Cl)c4F)[nH]c3nc2=O)cc1` [Compound 14] has an MIC [1] of 0.5 µg/mL (≈ 0.823 µM), an MIC [2] of 0.5 µg/mL (≈ 0.823 µM) and an MIC [3] of 1 µg/mL (≈ 1.65 µM). For the same molecule, the MIC50 [4] was ≤ 0.03 µg/mL, the MIC90 [4] was 0.25 µg/mL (≈ 0.412 µM) and the MIC [4] was 0.03 to 0.5 µg/mL (≈ 0.0494 to 0.823 µM). It also gave an MIC [5] of 1 µg/mL (≈ 1.65 µM), an MIC [6] of 1 µg/mL (≈ 1.65 µM) and an MIC [7] of 0.5 µg/mL (≈ 0.823 µM). For the same molecule, the MIC [8] was 0.5 µg/mL (≈ 0.823 µM), the MIC [9] was 2 µg/mL (≈ 3.29 µM) and the MIC [10] was 0.5 µg/mL (≈ 0.823 µM). For the same molecule, the MIC50 [11] was 0.12 µg/mL (≈ 0.198 µM), the MIC90 [11] was 0.5 µg/mL (≈ 0.823 µM) and the MIC [11] was 0.03 to 0.5 µg/mL (≈ 0.0494 to 0.823 µM). For the same molecule, the MIC [12] was 1 µg/mL, the MIC50 [13] was 0.06 µg/mL (≈ 0.0988 µM) and the MIC90 [13] was 0.25 µg/mL (≈ 0.412 µM). The MIC [13] was 0.03 to 2 µg/mL (≈ 0.0494 to 3.29 µM), the MIC [14, 20] was 2 µg/mL and the MIC [14, 21] was 0.5 µg/mL (≈ 0.823 µM). For the same molecule, the MIC [15] was 0.5 µg/mL (≈ 0.823 µM), the MIC [16] was 4 µg/mL (≈ 6.59 µM) and the MIC50 [17] was 2 µg/mL (≈ 3.29 µM). The MIC90 [17] was 4 µg/mL (≈ 6.59 µM), the MIC [17] was 0.25 to 8 µg/mL (≈ 0.412 to 13.2 µM) and the MIC50 [18] was 0.25 µg/mL (≈ 0.412 µM). For the same molecule, the MIC90 [18] was 0.25 µg/mL (≈ 0.412 µM), the MIC [18] was 0.03 to 0.5 µg/mL (≈ 0.0494 to 0.823 µM) and the MIC [19] was 4 µg/mL (≈ 6.59 µM).
Molecule `C[C@H](N)CCCc1cc(Cl)c(F)c(-c2cc3cn(-c4ccc([C@H](CCNc5nccs5)NCCCNC(=N)N)cc4)c(=O)nc3[nH]2)c1` [Compound 15] has an MIC [1] of 1 µg/mL (≈ 1.47 µM), an MIC [2] of 0.25 µg/mL (≈ 0.368 µM) and an MIC [3] of 2 µg/mL (≈ 2.94 µM). It also gave an MIC50 [4] of 0.06 µg/mL (≈ 0.0883 µM), an MIC90 [4] of 0.25 µg/mL (≈ 0.368 µM) and an MIC [4] of 0.03 to 0.5 µg/mL (≈ 0.0442 to 0.736 µM). For the same molecule, the MIC [5] was 1 µg/mL (≈ 1.47 µM), the MIC [6] was 1 µg/mL (≈ 1.47 µM) and the MIC [7] was 0.25 µg/mL (≈ 0.368 µM). The MIC [8] was 0.25 µg/mL (≈ 0.368 µM), the MIC [9] was 4 µg/mL (≈ 5.89 µM) and the MIC [10] was 0.5 µg/mL (≈ 0.736 µM). The MIC50 [11] was 0.5 µg/mL (≈ 0.736 µM), the MIC90 [11] was 1 µg/mL (≈ 1.47 µM) and the MIC [11] was 0.06 to 1 µg/mL (≈ 0.0883 to 1.47 µM). The MIC [12] was 2 µg/mL, the MIC50 [13] was 0.06 µg/mL (≈ 0.0883 µM) and the MIC90 [13] was 0.25 µg/mL (≈ 0.368 µM). The MIC [13] was 0.03 to 2 µg/mL (≈ 0.0442 to 2.94 µM), the MIC [14, 20] was 0.5 µg/mL and the MIC [14, 21] was 0.5 µg/mL (≈ 0.736 µM). The MIC [15] was 0.5 µg/mL (≈ 0.736 µM), the MIC [16] was 8 µg/mL (≈ 11.8 µM) and the MIC50 [17] was 8 µg/mL (≈ 11.8 µM). The MIC90 [17] was 16 µg/mL (≈ 23.6 µM), the MIC [17] was 4 to 32 µg/mL (≈ 5.89 to 47.1 µM) and the MIC50 [18] was 0.12 µg/mL (≈ 0.177 µM). It also gave an MIC90 [18] of 0.12 µg/mL (≈ 0.177 µM), an MIC [18] of 0.03 to 0.25 µg/mL (≈ 0.0442 to 0.368 µM) and an MIC [19] of 8 µg/mL (≈ 11.8 µM).
With `C=C[C@H](NCCCNC(=N)N)c1ccc(-n2cc3cc(-c4cc(CCC[C@H](C)N)cc(Cl)c4F)[nH]c3nc2=O)cc1` [Compound 10] the MIC [1] was 2 µg/mL (≈ 3.45 µM), the MIC [2] was 0.25 µg/mL (≈ 0.432 µM) and the MIC [3] was 0.5 µg/mL (≈ 0.863 µM). For the same molecule, the MIC50 [4] was ≤ 0.03 µg/mL, the MIC90 [4] was 0.12 µg/mL (≈ 0.207 µM) and the MIC [4] was 0.03 to 0.25 µg/mL (≈ 0.0518 to 0.432 µM). For the same molecule, the MIC [5] was 0.5 µg/mL (≈ 0.863 µM), the MIC [6] was 0.25 µg/mL (≈ 0.432 µM) and the MIC [7] was 0.25 µg/mL (≈ 0.432 µM). It also gave an MIC [8] of 0.25 µg/mL (≈ 0.432 µM), an MIC [9] of 2 µg/mL (≈ 3.45 µM) and an MIC [10] of 0.25 µg/mL (≈ 0.432 µM). The MIC50 [11] was ≤ 0.03 µg/mL, the MIC90 [11] was 0.06 µg/mL (≈ 0.104 µM) and the MIC [11] was 0.03 to 0.25 µg/mL (≈ 0.0518 to 0.432 µM). For the same molecule, the MIC [12] was 0.5 µg/mL, the MIC50 [13] was ≤ 0.03 µg/mL and the MIC90 [13] was 0.06 µg/mL (≈ 0.104 µM). The MIC [13] was 0.03 to 4 µg/mL (≈ 0.0518 to 6.91 µM), the MIC [14, 20] was 0.25 µg/mL and the MIC [14, 21] was 0.25 µg/mL (≈ 0.432 µM). The MIC [15] was 0.25 µg/mL (≈ 0.432 µM), the MIC [16] was 4 µg/mL (≈ 6.91 µM) and the MIC50 [17] was 1 µg/mL (≈ 1.73 µM). The MIC90 [17] was 2 µg/mL (≈ 3.45 µM), the MIC [17] was 0.25 to 8 µg/mL (≈ 0.432 to 13.8 µM) and the MIC50 [18] was 0.12 µg/mL (≈ 0.207 µM). For the same molecule, the MIC90 [18] was 0.25 µg/mL (≈ 0.432 µM), the MIC [18] was 0.03 to 0.25 µg/mL (≈ 0.0518 to 0.432 µM) and the MIC [19] was 4 µg/mL (≈ 6.91 µM).
Molecule `CCc1cc(CCC[C@H](C)N)cc(-c2cc3cn(-c4ccc(CNCCCNC(=N)N)cc4)c(=O)nc3[nH]2)c1F` [Compound 2] has an MIC [1] of 4 µg/mL (≈ 7.32 µM), an MIC [2] of 0.125 µg/mL (≈ 0.229 µM) and an MIC [3] of 1 µg/mL (≈ 1.83 µM). For the same molecule, the MIC50 [4] was ≤ 0.03 µg/mL, the MIC90 [4] was 0.06 µg/mL (≈ 0.11 µM) and the MIC [4] was 0.03 to 0.25 µg/mL (≈ 0.0549 to 0.457 µM). For the same molecule, the MIC [5] was 0.5 µg/mL (≈ 0.915 µM), the MIC [6] was 0.25 µg/mL (≈ 0.457 µM) and the MIC [7] was 0.125 µg/mL (≈ 0.229 µM). For the same molecule, the MIC [8] was 0.25 µg/mL (≈ 0.457 µM), the MIC [9] was 2 µg/mL (≈ 3.66 µM) and the MIC [10] was 0.25 µg/mL (≈ 0.457 µM). For the same molecule, the MIC50 [11] was 0.12 µg/mL (≈ 0.22 µM), the MIC90 [11] was 0.25 µg/mL (≈ 0.457 µM) and the MIC [11] was 0.03 to 0.25 µg/mL (≈ 0.0549 to 0.457 µM). The MIC [12] was 2 µg/mL, the MIC50 [13] was ≤ 0.03 µg/mL and the MIC90 [13] was ≤ 0.03 µg/mL. For the same molecule, the MIC [13] was 0.03 to 0.25 µg/mL (≈ 0.0549 to 0.457 µM), the MIC [14, 20] was 0.25 µg/mL and the MIC [14, 21] was 0.125 µg/mL (≈ 0.229 µM). It also gave an MIC [15] of 0.25 µg/mL (≈ 0.457 µM), an MIC [16] of 8 µg/mL (≈ 14.6 µM) and an MIC50 [17] of 2 µg/mL (≈ 3.66 µM). For the same molecule, the MIC90 [17] was 4 µg/mL (≈ 7.32 µM), the MIC [17] was 0.5 to 8 µg/mL (≈ 0.915 to 14.6 µM) and the MIC50 [18] was 0.12 µg/mL (≈ 0.22 µM). For the same molecule, the MIC90 [18] was 0.12 µg/mL (≈ 0.22 µM), the MIC [18] was 0.03 to 1 µg/mL (≈ 0.0549 to 1.83 µM) and the MIC [19] was 4 µg/mL (≈ 7.32 µM).
